{"source": "paper PMC10280016", "about": "(Frontiers in Molecular Biosciences, 2023)", "key": {"in vitro": {"assay": "in vitro", "settings": "human, Caco-2"}, "SARS-CoV-2 strain G614 [1]": {"test_system": "SARS-CoV-2 strain G614", "assay": "microbe, parasite or virus in culture", "format": "cell-based", "settings": "for IC50: Severe acute respiratory syndrome coronavirus 2, 24 h, read-out: Anti-SARS-CoV-2 activity, spike immunostaining assay (IC50 ± SD)"}, "[2]": {"test_system": "SARS-CoV main protease (Mpro, 3CL protease)", "settings": "ref Wen et al., 2007; cited from earlier work"}, "SARS-CoV": {"test_system": "SARS-CoV", "settings": "cited from earlier work"}, "SARS-CoV-2 [3]": {"test_system": "SARS-CoV-2"}, "SARS-CoV-2 [4]": {"test_system": "SARS-CoV-2", "settings": "Vero E6 cells; ref ter Ellen et al., 2021; cited from earlier work"}, "SARS-CoV-2 [5]": {"test_system": "SARS-CoV-2", "settings": "primary human bronchial epithelial cells, air-liquid interface culture; ref ter Ellen et al., 2021; cited from earlier work"}, "SARS-CoV-2 strain G614 [6]": {"test_system": "SARS-CoV-2 strain G614", "settings": "false positive in the assay; ref Bojkova et al., 2023; cited from earlier work"}, "SARS-CoV-2 [7]": {"test_system": "SARS-CoV-2", "settings": "ref Bojkova et al., 2023; cited from earlier work"}, "[8]": {"target": "T1, SARS-CoV-2 main protease (Mpro) (Severe acute respiratory syndrome coronavirus 2, UniProt P0DTD1)", "T1 construct": "made in house", "format": "biochemical"}, "SARS-CoV-2 strain G614 [9]": {"test_system": "SARS-CoV-2 strain G614", "format": "cell-based", "settings": "at 10 µM"}}, "note": "“Also recorded” adds a separate entry of the source. Like-named read-outs stand apart in the source and are kept apart here."}
{"smiles": "COc1cc(O)c2c(=O)c(-c3ccc(O)c(OC)c3)coc2c1", "note": "[Compound 12, 7,3′-di-O-methylorobol]", "values": [{"measurement": "CC50", "setting": "in vitro", "result": "> 100", "unit": "µM"}, {"measurement": "IC50", "setting": "SARS-CoV-2 strain G614 [1]", "result": "> 100", "unit": "µM"}]}
{"smiles": "O=C1OC[C@H](Cc2ccc3c(c2)OCO3)/C1=C\\c1ccc2c(c1)OCO2", "note": "[savinin]", "values": [{"measurement": "Inhibition of SARS-CoV main protease, mode", "setting": "[2]", "result": "competitive inhibition"}, {"measurement": "Anti-SARS-CoV activity EC50", "setting": "SARS-CoV", "result": "low micromolar range"}]}
{"smiles": "COc1ccc(CCCc2ccc(O)c(OC)c2)c(OC)c1", "note": "[Compound 9, pterosantalin D]", "values": [{"measurement": "CC50", "setting": "in vitro", "result": "> 100", "unit": "µM"}, {"measurement": "IC50", "setting": "SARS-CoV-2 strain G614 [1]", "result": "> 100", "unit": "µM"}]}
{"smiles": "COc1ccc(-c2coc3cc(O)cc(O)c3c2=O)c(OC)c1O", "note": "[Compound 14, khrinone C]", "values": [{"measurement": "CC50", "setting": "in vitro", "result": "> 100", "unit": "µM"}, {"measurement": "IC50", "setting": "SARS-CoV-2 strain G614 [1]", "result": "> 100", "unit": "µM"}, {"measurement": "MN Analysis: Activity classification (predicted anti-SARS-CoV-2 activity of the compound)", "setting": "SARS-CoV-2 [3]", "result": "inactive"}]}
{"smiles": "COc1cc(O)c2c(=O)c(-c3ccc(O)cc3)coc2c1", "note": "[Compound 11, 7-O-methylgenistein]", "values": [{"measurement": "CC50", "setting": "in vitro", "result": "> 100", "unit": "µM"}, {"measurement": "Selectivity index (CC50/IC50)", "setting": "SARS-CoV-2 strain G614 [1]", "result": ">2.6"}, {"measurement": "IC50", "setting": "SARS-CoV-2 strain G614 [1]", "result": "37.9 ± 5.4", "unit": "µM"}]}
{"smiles": "COc1cc(/C=C/c2ccc(O)cc2)cc(OC)c1", "note": "[Compound 1, (E)-pterostilbene]", "values": [{"measurement": "Anti-SARS-CoV-2 activity", "setting": "SARS-CoV-2 [4]", "result": "has shown anti-SARS-CoV-2 activity"}, {"measurement": "Anti-SARS-CoV-2 activity", "setting": "SARS-CoV-2 [5]", "result": "has shown anti-SARS-CoV-2 activity"}, {"measurement": "CC50", "setting": "in vitro", "result": "> 100", "unit": "µM"}, {"measurement": "Selectivity index (CC50/IC50)", "setting": "SARS-CoV-2 strain G614 [1]", "result": ">2.9"}, {"measurement": "IC50", "setting": "SARS-CoV-2 strain G614 [1]", "result": "34.7 ± 1.6", "unit": "µM"}]}
{"smiles": "COc1ccc2c(c1)OC[C@H]1c3cc4c(cc3O[C@@H]21)OCO4", "note": "[Compound 6, (−)-pterocarpin]", "values": [{"measurement": "CC50", "setting": "in vitro", "result": "> 100", "unit": "µM"}, {"measurement": "IC50", "setting": "SARS-CoV-2 strain G614 [1]", "result": "> 100", "unit": "µM"}, {"measurement": "MN Analysis: Activity classification (predicted anti-SARS-CoV-2 activity of the compound)", "setting": "SARS-CoV-2 [3]", "result": "active"}]}
{"smiles": "COc1ccc2c(c1)OC[C@H]1c3cc(O)c(OC)cc3O[C@@H]21", "note": "[Compound 7, (−)-8-hydroxyhomopterocarpan]", "values": [{"measurement": "CC50", "setting": "in vitro", "result": "> 100", "unit": "µM"}, {"measurement": "IC50", "setting": "SARS-CoV-2 strain G614 [1]", "result": "> 100", "unit": "µM"}]}
{"smiles": "COc1ccc([C@@H]2COc3cc(OC)ccc3C2=O)cc1", "note": "[Compound 23, (+)-7,4′-di-O-methyldihydrodaidzein]", "values": [{"measurement": "CC50", "setting": "in vitro", "result": "> 100", "unit": "µM"}, {"measurement": "Selectivity index (CC50/IC50)", "setting": "SARS-CoV-2 strain G614 [1]", "result": ">1.9"}, {"measurement": "IC50", "setting": "SARS-CoV-2 strain G614 [1]", "result": "53.3 ± 6.2", "unit": "µM"}]}
{"smiles": "COc1cc2c(cc1O)C1COc3cc(O)ccc3C1O2", "note": "(single isomer, unassigned; (-)) [Compound 4, (−)-3,8-dihydroxy-9-methoxypterocarpan]", "values": [{"measurement": "CC50", "setting": "in vitro", "result": "> 100", "unit": "µM"}, {"measurement": "IC50", "setting": "SARS-CoV-2 strain G614 [1]", "result": "> 100", "unit": "µM"}, {"measurement": "MN Analysis: Activity classification (predicted anti-SARS-CoV-2 activity of the compound)", "setting": "SARS-CoV-2 [3]", "result": "inactive"}]}
{"smiles": "Oc1ccc2c(c1)OCC1c3cc4c(cc3OC21)OCO4", "note": "(single isomer, unassigned; (-)) [Compound 3, (−)-maackiain]", "values": [{"measurement": "CC50", "setting": "in vitro", "result": "> 100", "unit": "µM"}, {"measurement": "IC50", "setting": "SARS-CoV-2 strain G614 [1]", "result": "> 100", "unit": "µM"}]}
{"smiles": "COc1ccc([C@@H]2COc3cc(OC)ccc3C2)c(O)c1", "note": "[Compound 22, (−)-isosativan]", "values": [{"measurement": "CC50", "setting": "in vitro", "result": "> 100", "unit": "µM"}, {"measurement": "Selectivity index (CC50/IC50)", "setting": "SARS-CoV-2 strain G614 [1]", "result": ">2.5"}, {"measurement": "IC50", "setting": "SARS-CoV-2 strain G614 [1]", "result": "40.8 ± 1.8", "unit": "µM"}]}
{"smiles": "C[C@H](NC(=O)C(=O)Nc1ccccc1C(C)(C)C)C(=O)N[C@@H](CC(=O)O)C(=O)COc1c(F)c(F)cc(F)c1F", "note": "[emricasan]", "values": [{"measurement": "Effect on SARS-CoV-2-induced caspase 3/7 activity", "setting": "SARS-CoV-2 strain G614 [6]", "result": "supressed SARS-CoV-2-induced caspase 3/7 activity"}, {"measurement": "Effect on SARS-CoV-2 replication", "setting": "SARS-CoV-2 [7]", "result": "did not affect SARS-CoV-2 replication"}]}
{"smiles": "COc1cc(O)c2c(=O)c(-c3ccc(O)c(O)c3)coc2c1", "note": "[Compound 13, santal]", "values": [{"measurement": "CC50", "setting": "in vitro", "result": "> 100", "unit": "µM"}, {"measurement": "Selectivity index (CC50/IC50)", "setting": "SARS-CoV-2 strain G614 [1]", "result": ">1.4"}, {"measurement": "IC50", "setting": "SARS-CoV-2 strain G614 [1]", "result": "74.2 ± 15.4", "unit": "µM"}]}
{"smiles": "COc1ccc2c(c1)O[C@H]1c3ccc(OC)cc3OC[C@@H]21", "note": "[Compound 5, (−)-homopterocarpin]", "values": [{"measurement": "SARS-CoV-2 Mpro inhibition", "setting": "[8]", "result": "did not show any inhibitory activity; also recorded: no inhibitory activity"}, {"measurement": "CC50", "setting": "in vitro", "result": "> 100", "unit": "µM"}, {"measurement": "Selectivity index (CC50/IC50)", "setting": "SARS-CoV-2 strain G614 [1]", "result": ">5.8"}, {"measurement": "IC50", "setting": "SARS-CoV-2 strain G614 [1]", "result": "17.2 ± 1.9", "unit": "µM"}, {"measurement": "MN Analysis: Activity classification (predicted anti-SARS-CoV-2 activity of the compound)", "setting": "SARS-CoV-2 [3]", "result": "active"}]}
{"smiles": "COc1ccc2c(c1)OC1c3ccc(O)cc3OCC21", "note": "(single isomer, unassigned; (-)) [Compound 2, (−)-medicarpin]", "values": [{"measurement": "CC50", "setting": "in vitro", "result": "> 100", "unit": "µM"}, {"measurement": "Selectivity index (CC50/IC50)", "setting": "SARS-CoV-2 strain G614 [1]", "result": ">3.0"}, {"measurement": "IC50", "setting": "SARS-CoV-2 strain G614 [1]", "result": "33.4 ± 9.7", "unit": "µM"}]}
{"smiles": "COc1ccc2c(c1)oc(=O)c1c3ccc(OC)cc3oc21", "note": "[Compound 16, 3,9-di-O-methylcoumestrol]", "values": [{"measurement": "CC50", "setting": "in vitro", "result": "> 100", "unit": "µM"}, {"measurement": "IC50", "setting": "SARS-CoV-2 strain G614 [1]", "result": "> 100", "unit": "µM"}]}
{"smiles": "CCC(CC)COC(=O)[C@H](C)N[P@](=O)(OC[C@H]1O[C@@](C#N)(c2ccc3c(N)ncnn23)[C@H](O)[C@@H]1O)Oc1ccccc1", "note": "[remdesivir, reference compound]", "values": [{"measurement": "CC50", "setting": "in vitro", "result": "> 10", "unit": "µM"}, {"measurement": "Selectivity index (CC50/IC50)", "setting": "SARS-CoV-2 strain G614 [1]", "result": ">58.8"}, {"measurement": "Selectivity index CC50/IC50", "setting": "SARS-CoV-2 strain G614 [1]", "result": ">58.8"}, {"measurement": "IC50", "setting": "SARS-CoV-2 strain G614 [1]", "result": "0.17 ± 0.01", "unit": "µM"}, {"measurement": "Anti-SARS-CoV-2 activity, Caspase assay [% inhibition]", "setting": "SARS-CoV-2 strain G614 [9]", "result": "93.4 (at 10 µM) % inhibition"}]}
